According to patent publication US20240300959A1, “BALASUBRAMIDE DERIVATIVE AND USE THEREOF IN PREPARATION OF MEDICINE FOR TREATING ACUTE LUNG INJURY” (Guangdong Pharmaceutical University, priority 2023, published 2024):
Read-outs that look alike come from different tables or passages of the source.

Key:
[1] = system: TNF-α in RAW264.7 macrophages stimulated by lipopolysaccharide; assay: TNF-α ELISA in cell supernatant of LPS-stimulated RAW264.7 macrophages; type: cell-based, mice
Protocol: RAW264.7 cells were inoculated into a 96-well plate at a density of 1×10^5 per well. When the cell density was 70%-80%, 18 balasubramide derivatives were prepared into 10 mM working solutions with DMSO, respectively, and then used to pretreat mononuclear macrophages RAW264.7 of mice at a final concentration of 10 μM. After 3 h, lipopolysaccharide (LPS, 100 ng/mL) was added into all wells for action for 2 h except for a control group. A supernatant was collected for later use, and the expression level of an inflammatory factor TNF-α in the cell supernatant was detected according to an operation instruction of a commercial ELISA kit.
(§1) RAW264.7 cells were inoculated into a 96-well plate at a density of 1×10^5 per well. When the cell density was 70%-80%, the RAW264.7 cells were pretreated with (+)3C-20 ([…]). After 3 h, lipopolysaccharide (LPS, 100 ng/mL) was added into all wells for action for 2 h except for a control group. The expression level of an inflammatory factor TNF-α in a cell supernatant was detected according to an operation instruction of a commercial ELISA kit, and the cell viability at different administration concentrations of (+)3C-20 was determined according to an operation instruction of a CCK-8 kit.

[2] = system: RAW264.7 cells; assay: CCK-8 cell viability of RAW264.7 macrophages at different concentrations of (+)3C-20 (LPS experiment); type: cell-based, mice; conditions: RAW264.7 cell viability
Protocol: as §1

[3] = system: bone marrow derived macrophages (BMDMs); assay: CCK-8 cell viability of bone marrow derived macrophages; type: cell-based, C57BL/6J mice; conditions: BMDM cell viability
Protocol: (1) Collection of bone marrow derived macrophages (BMDMs): C57BL/6J mice were sacrificed by dislocation of cervical vertebra, completely soaked and sterilized with 75% ethanol and placed faceup on a mouse board to fix the four limbs, the skin of the hind limbs was cut, the limbs were cut at ankle joints and femoral joints, and muscles and knee joints were removed. Precooled serum-free DMEM was sucked with a 1 mL syringe to rinse the bone marrow until a leg bone turned white, a rinsing solution was filtered with a 200-mesh filter membrane and then collected into a 15 mL centrifuge tube, centrifugation was performed at 500×g for 5 min, a supernatant was discarded, and a cell precipitate was resuspended with 1 mL of a red blood cell lysis buffer. After stomatocytosis was performed for 1 min, 5 mL of DMEM was added to stop the stomatocytosis, centrifugation was performed at 500×g for 5 min, a supernatant was discarded, and cells at a lower layer were resuspended overnight with DMEM containing 10% of FBS. Monocytes were collected by centrifugation and then resuspended with a DMEM culture medium containing 20% of FBS, and M-CSF was added at a final concentration of 25 ng/mL. The cells were inoculated into a 96-well plate at a density of 6×10^5, cultured in a cell incubator with a CO2 concentration of 5% at 37° C. for 48 h, and then cultured by adding M-CSF with a final concentration of 25 ng/mL into each well for 48 h until the monocytes were subjected to adherent culture and differentiation to obtain macrophages.
The expression level of an inflammatory factor TNF-α in a cell supernatant was detected according to an operation instruction of a commercial ELISA kit, and the cell viability at different administration concentrations of (+)3C-20 was determined according to an operation instruction of a CCK-8 kit.

[4] = system: mice with sepsis and lung injury caused by intraperitoneal injection of lipopolysaccharide; assay: Acute lung injury caused by sepsis (intraperitoneal injection of lipopolysaccharide); type: in vivo, ICR mice; conditions: for Content of TNF-α in serum (% of Model) / Area percentage of alveolar cells (%): 6 h after i.p. LPS; for Area percentage of alveolar cells (%): H&E lung sections; for Change multiple of IL-1β / Change multiple of IL-6 / Change multiple of TNF-α / Change multiple of iNOS: lung tissue RT-PCR; for Lung index (%): 6 h after i.p. LPS 10 mg/kg; for Body weight (Day 1) / Body weight (Day 2) / Body weight (Day 3): i.p. LPS sepsis model, in g (unit assumed)
Protocol: Administration and grouping of animals: Male ICR mice were used as experimental animals, which were randomly divided into a control group, a model group, a positive administration group and administration groups according to the body weight. The control group and the model group were administered with a solvent by intraperitoneal injection (the solvent was prepared from DMSO, Kolliphor HS15 and Saline at a ratio of 1:2:7), the positive administration group was administered with 5 mg/kg dexamethasone (DEX) by intraperitoneal injection, and the administration groups were administered with (+)3C-20 at a concentration of 10 mg/kg and 50 mg/kg, respectively, by intraperitoneal injection. The dexamethasone and the (+)3C-20 were dissolved in the above solvent and were clear and transparent. The administration was continued for 3 days. 2 h after the last administration, all the other groups were administered with LPS (10 mg/kg) by intraperitoneal injection while the control group was administered with an equal volume of normal saline by intraperitoneal injection. Body weight and lung index: The mice were weighed and randomly divided on day 1 and continuously weighed for 3 days before administration, and growth conditions of the mice were measured by statistics. The mice were administered with LPS by intraperitoneal injection 2 h after administration on day 3, then the mice were dissected 6 h later, and the lungs were taken, weighed and recorded.
On day 3, 6 h after the intraperitoneal injection of LPS, whole blood was collected from eye sockets and then subjected to centrifugation to prepare serum, and the serum was frozen at −80° C. The lungs were subjected to perfusion with PBS and fixed by paraformaldehyde, and the fixed lungs were stained with hematoxylin-eosin (H&E) after dehydration, paraffin embedding and sectioning. The serum was tested by a commercial TNF-α ELISA kit. Histopathological results and data statistics are shown in FIG. 7-1, FIG. 7-2 and Table 7.
A small amount of frozen lung tissues were taken and fully ground, and the expression of inflammation related genes in the lung tissues was detected by an RT-PCR technology according to an operation instruction of an RNA extraction kit.

O=C(CCc1ccc(C(F)(F)F)cc1)O[C@@H]1C(=O)NCCc2c([nH]c3ccccc23)[C@H]1c1ccc(C(F)(F)F)cc1 [(+)-3C-20]
anti-inflammatory activity (inhibition of expression of TNF-α in macrophages), in words ([1]; 10 μM, RAW264.7, LPS): better anti-inflammatory activity than other derivatives
activity at 0.1 µM ([1]; Mus musculus, RAW264.7, 0.1 μM, RAW264.7, LPS 100 ng/mL, read-out: Percentage of TNF-α in a model group (%)): 99.83 ± 0.89%
activity at 0.5 µM ([1]; Mus musculus, RAW264.7, 0.5 μM, RAW264.7, LPS 100 ng/mL, read-out: Percentage of TNF-α in a model group (%)): 98.1 ± 1.56%
activity at 1 µM ([1]; Mus musculus, RAW264.7, 1 μM, RAW264.7, LPS 100 ng/mL, read-out: Percentage of TNF-α in a model group (%)): 94.38 ± 0.45%
activity at 2 µM ([1]; Mus musculus, RAW264.7, 2 μM, RAW264.7, LPS 100 ng/mL, read-out: Percentage of TNF-α in a model group (%)): 88.6%
activity at 5 µM ([1]; Mus musculus, RAW264.7, 5 μM, RAW264.7, LPS 100 ng/mL, read-out: Percentage of TNF-α in a model group (%)): 83.7%
activity at 10 µM ([1]; Mus musculus, RAW264.7, 10 μM, RAW264.7, LPS 100 ng/mL (Table 3), read-out: Percentage of TNF-α in a model group (%)): 51.2%
activity at 20 µM ([1]; Mus musculus, RAW264.7, 20 μM, RAW264.7, LPS 100 ng/mL, read-out: Percentage of TNF-α in a model group (%)): 39.4%
activity at 10 µM ([1]; Mus musculus, RAW264.7, 2 h, 10 μM, 3 h pretreatment, LPS 100 ng/mL 2 h, RAW264.7, read-out: Percentage of TNF-α in a model group (%)): 39.9 ± 2.88%
effective dose for inhibiting the expression of TNF-α in the macrophages ([1]; RAW264.7, LPS): 2 to 20 µM
Percentage of CCK-8 in a model group (%) ([2]; 0.1 μM): 108.6 ± 1.49%
Percentage of CCK-8 in a model group (%) ([2]; 0.5 μM): 106.11 ± 2.44%
Percentage of CCK-8 in a model group (%) ([2]; 1 μM): 106.01 ± 1.75%
Percentage of CCK-8 in a model group (%) ([2]; 2 μM): 106.41 ± 3.04%
Percentage of CCK-8 in a model group (%) ([2]; 5 μM): 105.55 ± 1.06%
Percentage of CCK-8 in a model group (%) ([2]; 10 μM): 96.64 ± 1.45%
Percentage of CCK-8 in a model group (%) ([2]; 20 μM): 95.83 ± 2.29%
Percentage of CCK-8 in a model group (%) ([3]; 0.1 μM): 100.35 ± 3.74%
Percentage of CCK-8 in a model group (%) ([3]; 1 μM): 96.71 ± 2.26%
Percentage of CCK-8 in a model group (%) ([3]; 2.5 μM): 97.49 ± 1.35%
Percentage of CCK-8 in a model group (%) ([3]; 5 μM): 89.87 ± 3.68%
Content of TNF-α in serum (% of Model) ([4]; 10 mg/kg i.p.): 78.38 ± 11.32 ^ % of Model
Area percentage of alveolar cells (%) ([4]; 10 mg/kg i.p.): 38.68 ± 3.73%
Change multiple of IL-1β ([4]; 10 mg/kg i.p., i.p. LPS): 9.68 ± 0.67
Change multiple of IL-6 ([4]; 10 mg/kg i.p., i.p. LPS): 47.5 ± 7.38
Change multiple of TNF-α ([4]; 10 mg/kg i.p., i.p. LPS): 10.58 ± 1.72
Change multiple of iNOS ([4]; 10 mg/kg i.p., i.p. LPS): 12.44 ± 1.28 ^
Lung index (%) ([4]; 10 mg/kg intraperitoneal 3 days): 0.714 ± 0.02 ^ %
Body weight (Day 1) ([4]; 10 mg/kg intraperitoneal): 25.42 ± 1.1
Body weight (Day 2) ([4]; 10 mg/kg intraperitoneal): 25.46 ± 1.2
Body weight (Day 3) ([4]; 10 mg/kg intraperitoneal): 25.77 ± 1.03
Content of TNF-α in serum (% of Model) ([4]; 50 mg/kg i.p.): 55.06 ± 5.96 % of Model
Area percentage of alveolar cells (%) ([4]; 50 mg/kg i.p.): 30.43 ± 2.41 %
Change multiple of IL-1β ([4]; 50 mg/kg i.p., i.p. LPS): 10.13 ± 1.72
Change multiple of IL-6 ([4]; 50 mg/kg i.p., i.p. LPS): 13.73 ± 1.56
Change multiple of TNF-α ([4]; 50 mg/kg i.p., i.p. LPS): 5.55 ± 0.86
Change multiple of iNOS ([4]; 50 mg/kg i.p., i.p. LPS): 5.42 ± 1.02
Lung index (%) ([4]; 50 mg/kg intraperitoneal 3 days): 0.672 ± 0.014 %
Body weight (Day 1) ([4]; 50 mg/kg intraperitoneal): 25.34 ± 0.57
Body weight (Day 2) ([4]; 50 mg/kg intraperitoneal): 26.16 ± 1.22
Body weight (Day 3) ([4]; 50 mg/kg intraperitoneal): 27.01 ± 1.08
pathological lung injury compared with the model group, in words ([4]; 50 mg/kg, i.p. LPS): obviously relieving pathological lung injury
